Source: ChEMBL document CHEMBL4251541, “Microwave-enhanced Friedländer synthesis for the rapid assembly of halogenated quinolines with antibacterial and biofilm eradication activities against drug resistant and tolerant bacteria” (Medchemcomm, 2017)
In brackets after ≈: the same amount, converted by molar mass.

Legend:
[1] = test system: Staphylococcus epidermidis; assay: Antibacterial activity against methicillin-resistant Staphylococcus epidermidis ATCC 35984 after 16 to 18 hrs by broth microdilution method; type: functional
[2] = Hemolytic activity in human RBC at 200 uM after 1 hr relative to control; type: ADME, cell-based, Erythrocyte; conditions: red blood cells (erythrocytes), read-out: Activity
[3] = test system: Staphylococcus aureus; assay: Antibiofilm activity against methicillin-resistant Staphylococcus aureus isolate 2 after 24 hrs by calgary biofilm device-based assay; type: functional
[4] = test system: Enterococcus faecium; assay: Bactericidal activity against vancomycin-resistant Enterococcus faecium ATCC 700221 after 24 hrs by calgary biofilm device-based assay; type: functional; conditions: ATCC 700221, 24 h
[5] = test system: Staphylococcus epidermidis; assay: Bactericidal activity against methicillin-resistant Staphylococcus epidermidis ATCC 35984 after 24 hrs by calgary biofilm device-based assay; type: functional; conditions: ATCC 35984, 24 h
[6] = test system: Enterococcus faecium; assay: Antibacterial activity against vancomycin-resistant Enterococcus faecium ATCC 700221 after 16 to 18 hrs by broth microdilution method; type: functional
[7] = test system: Staphylococcus aureus; assay: Bactericidal activity against methicillin-resistant Staphylococcus aureus isolate 2 after 24 hrs by calgary biofilm device-based assay; type: functional; conditions: isolate 2, 24 h
[8] = test system: Staphylococcus epidermidis; assay: Antibiofilm activity against methicillin-resistant Staphylococcus epidermidis ATCC 35984 after 24 hrs by calgary biofilm device-based assay; type: functional
[9] = test system: Staphylococcus aureus; assay: Antibacterial activity against methicillin-resistant Staphylococcus aureus isolate 2 after 16 to 18 hrs by broth microdilution method; type: functional
[10] = test system: Enterococcus faecium; assay: Antibiofilm activity against vancomycin-resistant Enterococcus faecium ATCC 700221 after 24 hrs by calgary biofilm device-based assay; type: functional
[11] = test system: Staphylococcus aureus; assay: Antibiofilm activity against methicillin-resistant Staphylococcus aureus BAA 1707 after 24 hrs by calgary biofilm device-based assay; type: functional
[12] = test system: Staphylococcus aureus; assay: Bactericidal activity against methicillin-resistant Staphylococcus aureus BAA 1707 after 24 hrs by calgary biofilm device-based assay; type: functional; conditions: BAA 1707, 24 h

SMILES | MIC [1] [µM] | hemolysis at 1 h, 200 µM [2] [%] | MBEC [3] [µM] | MBC [4] [µM] | MBC [5] [µM] | MIC [6] [µM] | MBC [7] [µM] | MBEC [8] [µM] | MIC [9] [µM] | MBEC [10] [µM] | MBEC [11] [µM] | MBC [12] [µM]
CCCCCCCCCCCC[N+](C)(C)CC[N+](C)(C)CC[N+](C)(C)CCCCCCCCCCCC | 2.35 | > 99 | 125 | 3 | 31.3 | 2.35 | 31.3 | 31.3 | 3.13 | 3 |  | 
CC(=O)c1cc2c(Br)cc(Br)c(O)c2nc1C | 6.25 (≈ 2.24 µg/mL) | 2.3 | >1000 |  |  | 25 (≈ 8.98 µg/mL) | 250 (≈ 89.8 µg/mL) |  | 1.56 (≈ 0.56 µg/mL) |  |  | 
Cc1nc2c(O)c(Br)cc(Br)c2cc1C(=O)O/C(=N\C1CCCCC1)NC1CCCCC1 | 1.56 (≈ 0.885 µg/mL) | ≤ 1 |  |  |  | 25 (≈ 14.2 µg/mL) |  |  | 12.5 (≈ 7.09 µg/mL) |  |  | 
Cc1nc2c(O)c(Br)cc(Br)c2cc1C(=O)N1CCOCC1 | 50 (≈ 21.5 µg/mL) | ≤ 1 |  |  |  | > 100 |  |  | 100 (≈ 43 µg/mL) |  |  | 
Cc1nc2c(O)c(Br)cc(Br)c2cc1C(=O)c1ccccc1 | 3.13 (≈ 1.32 µg/mL) | 2.5 | 23.5 | 46.9 (≈ 19.7 µg/mL) | 5.9 (≈ 2.48 µg/mL) | 0.78 (≈ 0.328 µg/mL) | 15.6 (≈ 6.57 µg/mL) | 1 | 0.59 (≈ 0.248 µg/mL) | 23.5 | 3.9 | 7.8 (≈ 3.28 µg/mL)
Oc1c(Br)cc(Br)c2ccc(-c3ccccc3)nc12 |  | 1.9 |  |  |  | > 100 |  |  | 25 (≈ 9.48 µg/mL) |  |  | 
COC(=O)c1cc2c(Br)cc(Br)c(O)c2nc1C | 0.3 (≈ 0.113 µg/mL) | 1.5 |  |  |  | 2.35 (≈ 0.881 µg/mL) |  |  | 1.56 (≈ 0.585 µg/mL) |  |  | 
CCCNC(=O)c1cc2c(Br)cc(Br)c(O)c2nc1C | 12.5 (≈ 5.03 µg/mL) | 7 |  |  |  | 50 (≈ 20.1 µg/mL) |  |  | 37.5 (≈ 15.1 µg/mL) |  |  | 
Cc1cnc2c(O)c(Br)cc(Br)c2c1 | 1.17 (≈ 0.371 µg/mL) | ≤ 1 | 46.9 | 7.8 (≈ 2.47 µg/mL) | 23.5 (≈ 7.45 µg/mL) |  | 15.6 (≈ 4.94 µg/mL) | 31.3 | 3.13 (≈ 0.992 µg/mL) | 5.9 |  | 
CCOC(=O)c1c(C)nc2c(O)c(Br)cc(Br)c2c1C | 1.17 (≈ 0.472 µg/mL) | ≤ 1 |  |  |  | 4.69 (≈ 1.89 µg/mL) |  |  | 6.25 (≈ 2.52 µg/mL) |  |  | 
Oc1c(Br)cc(Br)c2cc(Cc3ccccc3)cnc12 | 3.13 (≈ 1.23 µg/mL) | 4.6 |  |  |  | 18.8 (≈ 7.39 µg/mL) |  |  | 50 (≈ 19.7 µg/mL) |  |  | 
Cc1nc2c(O)c(Br)cc(Br)c2cc1C(=O)OCc1ccccc1 | 0.1 (≈ 0.0451 µg/mL) | 7.9 | >1000 | 3.9 (≈ 1.76 µg/mL) | 46.9 (≈ 21.2 µg/mL) | 0.3 (≈ 0.135 µg/mL) | 375 (≈ 169 µg/mL) | 15.6 | 6.25 (≈ 2.82 µg/mL) | 1.5 |  | 
Oc1c(Br)cc(Br)c2ccc(-c3ccccn3)nc12 |  | ≤ 1 |  |  |  | 25 (≈ 9.5 µg/mL) |  |  | 37.5 (≈ 14.3 µg/mL) |  |  | 
Cc1nc2c(O)c(Br)cc(Br)c2cc1C(=O)O | 25 (≈ 9.02 µg/mL) | 2.5 |  |  |  | > 100 |  |  | 50 (≈ 18 µg/mL) |  |  | 
CCOC(=O)c1cc2c(Br)cc(Br)c(O)c2nc1C | 0.1 (≈ 0.0389 µg/mL) | 2.2 | 31.3 | 3 (≈ 1.17 µg/mL) | 93.8 (≈ 36.5 µg/mL) | 0.78 (≈ 0.303 µg/mL) | 31.3 (≈ 12.2 µg/mL) | 23.5 | 0.39 (≈ 0.152 µg/mL) | 2 |  | 
CCc1cnc2c(O)c(Br)cc(Br)c2c1 | 0.59 (≈ 0.195 µg/mL) | 2.4 | 188 | 31.3 (≈ 10.4 µg/mL) | 62.5 (≈ 20.7 µg/mL) | 12.5 (≈ 4.14 µg/mL) | 46.9 (≈ 15.5 µg/mL) | 46.9 | 6.25 (≈ 2.07 µg/mL) | 23.5 |  | 
CCc1nc2c(O)c(Br)cc(Br)c2cc1C | 0.15 (≈ 0.0518 µg/mL) | ≤ 1 | >1000 |  |  | 0.78 (≈ 0.269 µg/mL) | > 1000 |  | 6.25 (≈ 2.16 µg/mL) |  |  | 
Cc1nc2c(O)c(Br)cc(Br)c2cc1C(=O)NCc1ccccc1 | 6.25 (≈ 2.81 µg/mL) | 13 | >1000 |  |  | 25 (≈ 11.3 µg/mL) | > 2000 |  | 6.25 (≈ 2.81 µg/mL) |  |  | 
Cc1ccc2c(Br)cc(Br)c(O)c2n1 [BROQUINALDOL] | 0.2 (≈ 0.0634 µg/mL) | ≤ 1 | 46.9 | 3 (≈ 0.951 µg/mL) | 7.8 (≈ 2.47 µg/mL) | 2.35 (≈ 0.745 µg/mL) | 23.5 (≈ 7.45 µg/mL) | 3 |  | 2 | 31.3 | 31.3 (≈ 9.92 µg/mL)
CCCCCCCCCC(=O)N[C@@H](Cc1c[nH]c2ccccc12)C(=O)N[C@@H](CC(N)=O)C(=O)N[C@@H](CC(=O)O)C(=O)N[C@@H]1C(=O)NCC(=O)N[C@@H](CCCN)C(=O)N[C@@H](CC(=O)O)C(=O)N[C@H](C)C(=O)N[C@@H](CC(=O)O)C(=O)NCC(=O)N[C@H](CO)C(=O)N[C@@H]([C@H](C)CC(=O)O)C(=O)N[C@@H](CC(=O)c2ccccc2N)C(=O)O[C@@H]1C [DAPTOMYCIN] | 12.5 (≈ 20.3 µg/mL) |  | >2000 |  |  |  | 62.5 (≈ 101 µg/mL) |  |  |  |  | 
CC(=O)NC[C@H]1CN(c2ccc(N3CCOCC3)c(F)c2)C(=O)O1 [LINEZOLID] | 3.13 (≈ 1.06 µg/mL) | ≤ 1 | >2000 |  |  | 3.13 (≈ 1.06 µg/mL) |  |  | 3.13 (≈ 1.06 µg/mL) |  |  | 
CN[C@H](CC(C)C)C(=O)N[C@H]1C(=O)N[C@@H](CC(N)=O)C(=O)N[C@H]2C(=O)N[C@H]3C(=O)N[C@H](C(=O)N[C@H](C(=O)O)c4cc(O)cc(O)c4-c4cc3ccc4O)[C@H](O)c3ccc(c(Cl)c3)Oc3cc2cc(c3O[C@@H]2O[C@H](CO)[C@@H](O)[C@H](O)[C@H]2O[C@H]2C[C@](C)(N)[C@H](O)[C@H](C)O2)Oc2ccc(cc2Cl)[C@H]1O [VANCOMYCIN] |  | ≤ 1 | >2000 | > 200 |  | > 100 | 3 (≈ 4.35 µg/mL) | >2000 |  | 200 | >2000 | 3.9 (≈ 5.65 µg/mL)
